# Literature values as cited in patent US11484510B2, “Method to treat vitiligo” (APIRX PHAR[…], LLC, priority 2017, dated 2022).
# Columns and labels:
# CB1 receptor = CB1 receptor (Homo sapiens, UniProt P21554)
# Chain of CB1 receptor (P21554 whole entry): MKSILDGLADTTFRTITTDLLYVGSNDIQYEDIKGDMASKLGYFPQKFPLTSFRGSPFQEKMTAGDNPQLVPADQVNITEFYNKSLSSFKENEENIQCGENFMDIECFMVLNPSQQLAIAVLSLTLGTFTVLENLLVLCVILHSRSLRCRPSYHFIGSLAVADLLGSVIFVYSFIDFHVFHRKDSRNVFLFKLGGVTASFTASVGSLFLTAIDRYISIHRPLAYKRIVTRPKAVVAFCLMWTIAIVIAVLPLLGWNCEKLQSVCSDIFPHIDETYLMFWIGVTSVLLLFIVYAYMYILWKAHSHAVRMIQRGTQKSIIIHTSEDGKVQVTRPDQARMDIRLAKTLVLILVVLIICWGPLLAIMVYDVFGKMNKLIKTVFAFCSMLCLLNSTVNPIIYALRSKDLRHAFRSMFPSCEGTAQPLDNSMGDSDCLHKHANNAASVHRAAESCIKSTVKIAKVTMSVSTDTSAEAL
smiles,measurement,setting,value
"CCCCCc1cc(O)c(C/C=C(\C)CCC=C(C)C)c(O)c1 [CBG, 2-[(2E)-3,7-dimethylocta-2,6-dienyl]-5-pentyl-benzene-1,3-diol]","Affinity, CB1 receptor antagonist",CB1 receptor,low affinity
same,"Affinity, α2-adrenergic receptor agonist",α2-adrenergic receptor,high affinity
same,"Affinity, 5-HT1A receptor antagonist",5-HT1A receptor,moderate affinity
